# Results taken from patent US11795147B2, “Modulators of complex I” (Boehringer Ingelheim International GmbH, priority 2019, dated 2023).
# Molecular target: Complex I
# Assay: Assay A: Determination of Complex I mediated ROS-inhibition (CI)
# Type: biochemical
# Settings: read-out: CI IC50; ROS generation by Complex I purified from bovine heart, Amplex Red/horse radish peroxidase readout, 8 point concentration-response
row,SMILES,IC50 [nM]
1,CN(C)c1ccc2c(c1)/C(=C1\CCCN1)C(=O)N2C [Compound 1],60
2,CN(C)c1ccc2c(c1)/C(=C1\COCCN1)C(=O)N2C [Compound 2],80
3,CC(C)Nc1ccc2c(c1)/C(=C1\COCCN1)C(=O)N2C1CCOCC1 [Compound 3],77
4,O=C1/C(=C2/COCCN2)c2cc(N3CCOCC3)ccc2N1C1CCOCC1 [Compound 4],242
5,CC(C)Nc1ccc2c(c1)/C(=C1\CN(C3COC3)CCN1)C(=O)N2C1CCOCC1 [Compound 5],81
6,CC(C)Nc1ccc2c(c1)C(=C1CCOCC1)C(=O)N2C1CCOCC1 [Compound 6],533
7,CC(C)N1C(=O)C(=C2CCOCC2)c2cc(N3CCCC3)ccc21 [Compound 7],350
8,CN1CCC/C1=C1/C(=O)N(C2CCOCC2)c2ccc(NC3CCC3)cc21 [Compound 9],398
9,CC(=O)N1CCN/C(=C2\C(=O)N(C3CCOCC3)c3ccc(N4CCCC4)cc32)CC1 [Compound 12],194
10,O=C1/C(=C2/CCOCCN2)c2cc(NC3CCCC3)ccc2N1C1CCOCC1 [Compound 13],84
11,O=C1/C(=C2/COCCN2)c2cc(NC3CCC3)ccc2N1C1CCOC1 (stereo not drawn) [Compound 14],101
12,CC(Nc1ccc2c(c1)/C(=C1\COCCN1)C(=O)N2C(C)C)c1cccnc1 (stereo not drawn) [Compound 15],96
13,COC1COCCC1Nc1ccc2c(c1)/C(=C1\COCCN1)C(=O)N2C(C)C (stereo not drawn) [Compound 16],313
14,CC(Nc1ccc2c(c1)/C(=C1\COCCN1)C(=O)N2C(C)C)c1ccnn1C (stereo not drawn) [Compound 17],22
15,O=C1/C(=C2/COCCN2)c2cc(NC3CCOCC3)ccc2N1C1CCOCC1 [Compound 18],11
16,CC(C)N1CCC(Nc2ccc3c(c2)/C(=C2\COCCN2)C(=O)N3C2CCOCC2)CC1 [Compound 19],22
17,CC(Nc1ccc2c(c1)/C(=C1\COCCN1)C(=O)N2C1CCOCC1)C1CC1 (stereo not drawn) [Compound 20],73
18,O=C1/C(=C2/COCCN2)c2cc(NCc3cc[nH]n3)ccc2N1C1CCOCC1 [Compound 21],108
19,CC(C)N1C(=O)/C(=C2/CCOCCN2)c2cc(NC3CCC3)ccc21 [Compound 22],87
20,CC(C)N1CCN/C(=C2\C(=O)N(C)c3ccc(N4CCCC4)cc32)C1 [Compound 23],137
21,CC(C)N1C(=O)C(=C2CCOCC2)c2cc(NC3CCC3)ccc21 [Compound 25],707
22,CC(C)Nc1ccc2c(c1)/C(=C1\COCCN1)C(=O)N2C1COCCOC1 [Compound 26],20

row,SMILES,IC50 [nM]
1,CC(C)C(C)Nc1ccc2c(c1)/C(=C1\COCCN1)C(=O)N2C1COCCOC1 (stereo not drawn) [Compound 27],162
2,COCC(C)N1C(=O)/C(=C2/COCCN2)c2cc(NC(C)C)ccc21 (stereo not drawn) [Compound 28],69
3,CC1CCC(C)N1c1ccc2c(c1)/C(=C1\CCOCCN1)C(=O)N2C1CCOCC1 (stereo not drawn) [Compound 29],132
4,CC(C)Nc1ccc2c(c1)/C(=C1\COCCN1)C(=O)N2[C@H]1CCN(C(C)C)C1 [Compound 31],81
5,O=C1/C(=C2/COCCN2)c2cc(NC3CCOCC3)ccc2N1C1CCOC1 (stereo not drawn) [Compound 32],31
6,CC(C)Nc1ccc2c(c1)/C(=C1\COCC(C)N1)C(=O)N2C1CCOCC1 (stereo not drawn) [Compound 33],32
7,CC(=O)N1CCC2(CC1)CN/C(=C1\C(=O)N(C(C)C)c3ccc(NC(C)C)cc31)CO2 [Compound 34],48
8,Nc1ccc2c(c1)/C(=C1\COCCN1)C(=O)N2C1CCOCC1 [Compound 35],83
9,CC(C)N1C(=O)/C(=C2/COCCN2)c2cc(NC3CCOCC3)ccc21 [Compound 36],150
10,CC(Nc1ccc2c(c1)/C(=C1\COCCN1)C(=O)N2C(C)C)C1CCC1 (stereo not drawn) [Compound 37],405
11,CC(C)N1C(=O)/C(=C2/COCCN2)c2cc(NC3CCN(C)CC3)ccc21 [Compound 38],51
12,CC(C)N1C(=O)/C(=C2/COCCN2)c2cc(NCC3CCOC3)ccc21 (stereo not drawn) [Compound 39],67
13,CN1C(=O)/C(=C2/CCNCCN2)c2cc(N3CCCC3)ccc21 [Compound 40],166
14,CN(C)c1ccc2c(c1)/C(=C1\CCOCCN1)C(=O)N2C [Compound 41],52
15,CN(C)c1ccc2c(c1)/C(=C1\CCCN1)C(=O)N2C1CCOCC1 [Compound 42],42
16,CNc1ccc2c(c1)/C(=C1\CCCN1)C(=O)N2C1CCOCC1 [Compound 43],11
17,CC(C)Nc1ccc2c(c1)/C(=C1\COCCN1)C(=O)N2C(C)C [Compound 44],44
18,CN1C(=O)/C(=C2/CCN(C3COC3)CCN2)c2cc(N3CCCC3)ccc21 [Compound 45],259
19,CC(C)Nc1ccc2c(c1)/C(=C1\CN(C(C)C)CCN1)C(=O)N2C1CCOCC1 [Compound 46],86
20,CC(C)Nc1ccc2c(c1)C(=C1CCOCC1)C(=O)N2C(C)C [Compound 47],153
21,CC(C)Nc1ccc2c(c1)/C(=C1\CCCN1C)C(=O)N2C1CCOCC1 [Compound 48],122
22,CN1CCC/C1=C1/C(=O)N(C2CCOCC2)c2ccc(NC3CCOC3)cc21 (stereo not drawn) [Compound 49],282

row,SMILES,IC50 [nM]
1,O=C1/C(=C2/COCCN2)c2cc(NC3CCCC3)ccc2N1C1COCCOC1 [Compound 50],195
2,O=C1/C(=C2/COCCN2)c2cc(NC3CCC3)ccc2N1C1COC1 [Compound 51],135
3,COCC(C)Nc1ccc2c(c1)/C(=C1\COCCN1)C(=O)N2C1CCOC1 (stereo not drawn) [Compound 52],61
4,CC(=O)N1CCC2(CC1)CN/C(=C1\C(=O)N(C(C)C)c3ccc(N4CCCC4)cc31)CO2 [Compound 53],233
5,CCC(C)Nc1ccc2c(c1)/C(=C1\COCCN1)C(=O)N2C(C)C (stereo not drawn) [Compound 54],203
6,CC(C)N1C(=O)/C(=C2/COCCN2)c2cc(NC(C)C(C)(C)C)ccc21 (stereo not drawn) [Compound 55],307
7,CC(Nc1ccc2c(c1)/C(=C1\COCCN1)C(=O)N2C(C)C)C1CCCC1 (stereo not drawn) [Compound 56],159
8,CC(Nc1ccc2c(c1)/C(=C1\COCCN1)C(=O)N2C(C)C)c1cnccn1 (stereo not drawn) [Compound 57],73
9,CC(C)N1C(=O)/C(=C2/COCCN2)c2cc(NCC3CC3)ccc21 [Compound 58],100
10,CCC(C)Nc1ccc2c(c1)/C(=C1\COCCN1)C(=O)N2C1CCOCC1 (stereo not drawn) [Compound 59],122
11,O=C1/C(=C2/COCCN2)c2cc(NC3CCCC3)ccc2N1C1CCOCC1 [Compound 60],245
12,CC(Nc1ccc2c(c1)/C(=C1\COCCN1)C(=O)N2C1CCOCC1)C1CCCC1 (stereo not drawn) [Compound 61],343
13,CN(C)c1ccc2c(c1)/C(=C1\CCCCN1)C(=O)N2C [Compound 62],81
14,CC(C)Nc1ccc2c(c1)/C(=C1\COCCN1)C(=O)N2C [Compound 63],22
15,CN1CCN/C(=C2\C(=O)N(C)c3ccc(N4CCCC4)cc32)CC1 [Compound 64],286
16,O=C1/C(=C2/COCCN2)c2cc(NC3CCCC3)ccc2N1C1COC1 [Compound 65],194
17,CC(C)C(C)Nc1ccc2c(c1)/C(=C1\COCCN1)C(=O)N2C1COC1 (stereo not drawn) [Compound 66],169
18,CC(Nc1ccc2c(c1)/C(=C1\COCCN1)C(=O)N2C1COC1)C1CC1 (stereo not drawn) [Compound 67],225
19,COCC(C)N1C(=O)/C(=C2/COCCN2)c2cc(N3CCCC3)ccc21 (stereo not drawn) [Compound 68],624
20,CC(C)Nc1ccc2c(c1)/C(=C1\COCCN1)C(=O)N2[C@H]1CCN(C2COC2)C1 [Compound 69],55
21,O=C1/C(=C2/CC3(CN2)COC3)c2cc(NC3CCOC3)ccc2N1C1CCOCC1 (stereo not drawn) [Compound 70],193
22,CC(Nc1ccc2c(c1)/C(=C1\COCCN1)C(=O)N2C(C)C)c1ccccn1 (stereo not drawn) [Compound 71],93

row,SMILES,IC50 [nM]
1,CC(C)N1C(=O)/C(=C2/COCCN2)c2cc(NC3CCC(F)(F)CC3)ccc21 [Compound 72],140
2,CC(C)N1C(=O)/C(=C2/COCCN2)c2cc(NC3CCOCC3F)ccc21 (stereo not drawn) [Compound 73],66
3,CC(C)N1C(=O)/C(=C2/COCCN2)c2cc(NCc3cc[nH]n3)ccc21 [Compound 74],46
4,CC(C)N1C(=O)/C(=C2/COCCN2)c2cc(NCC3CCOCC3)ccc21 [Compound 75],72
5,CCC(CC)Nc1ccc2c(c1)/C(=C1\COCCN1)C(=O)N2C1CCOCC1 [Compound 76],43
6,CC(Nc1ccc2c(c1)/C(=C1\COCCN1)C(=O)N2C1CCOCC1)c1ccccn1 (stereo not drawn) [Compound 77],22
7,O=C1/C(=C2/COCCN2)c2cc(NC3CCC(F)(F)CC3)ccc2N1C1CCOCC1 [Compound 78],89
8,CC(Nc1ccc2c(c1)/C(=C1\COCCN1)C(=O)N2C1CCOCC1)c1ccnn1C (stereo not drawn) [Compound 79],20
9,O=C1/C(=C2/COCCN2)c2cc(NC3CCOCC3F)ccc2N1C1CCOCC1 (stereo not drawn) [Compound 80],84
10,O=C1/C(=C2/COCCN2)c2cc(NCC3CCOCC3)ccc2N1C1CCOCC1 [Compound 81],130
11,CC(C)Nc1ccc2c(c1)/C(=C1\CCOCCN1)C(=O)N2C(C)C [Compound 82],91
12,Nc1ccc2c(c1)/C(=C1\CCCN1)C(=O)N2C1CCOCC1 [Compound 83],11
13,CC1CCC(C)N1c1ccc2c(c1)/C(=C1\COCCN1)C(=O)N2C (stereo not drawn) [Compound 84],333
14,CC1CCN(c2ccc3c(c2)/C(=C2\COCCN2)C(=O)N3C2CCOCC2)CC1 [Compound 85],69
15,O=C1/C(=C2/COCCN2)c2cc(N3CCCCC3)ccc2N1C1CCOCC1 [Compound 86],69
16,CC(C)Nc1ccc2c(c1)/C(=C1\CN(C(C)C)CCN1)C(=O)N2C(C)C [Compound 88],68
17,CC(C)Nc1ccc2c(c1)/C(=C1\COCCN1)C(=O)N2C(C)(C)C [Compound 90],428
18,CC(C)N1CCC2(CC1)CN/C(=C1\C(=O)N(C(C)C)c3ccc(N4CCCC4)cc31)CO2 [Compound 91],242
19,CC1COC/C(=C2/C(=O)N(C3CCOCC3)c3ccc(N4C(C)CCC4C)cc32)N1 (stereo not drawn) [Compound 93],24
20,CC(C)N1C(=O)/C(=C2/COCCN2)c2cc(NC3CCCC3)ccc21 [Compound 94],558
21,CC(C)C(C)Nc1ccc2c(c1)/C(=C1\COCCN1)C(=O)N2C(C)C (stereo not drawn) [Compound 95],151
